Experimental data published in the NIST ThermoML archive (doi:10.1016/j.tca.2013.05.015).
Numbers after ± are expanded uncertainties.

Test: mn = molality of the nth substance listed, in mol/kg
Settings: 101 kPa, Liquid; for speed of sound: Sing-around technique in a fixed-path interferometer; for mass density: Vibrating tube method

CCCCCCCC[N+](C)(CCCCCCCC)CCCCCCCC.O=S(=O)([N-]S(=O)(=O)C(F)(F)F)C(F)(F)F + CCO
Settings | mass density, 298.15 K [kg/m3] | mass density, 303.15 K [kg/m3] | mass density, 308.15 K [kg/m3] | mass density, 313.15 K [kg/m3] | speed of sound, 298.15 K [m/s] | speed of sound, 303.15 K [m/s] | speed of sound, 308.15 K [m/s] | speed of sound, 313.15 K [m/s]
m1 = 0.022 | 787.5 ± 2 | 783.3 ± 2 | 778.6 ± 2 | 774 ± 2 | 1150 ± 10 | 1129 ± 10 | 1099 ± 10 | 1087 ± 10
m1 = 0.0465 | 790.5 ± 2 | 786.3 ± 2 | 781.5 ± 2 | 777 ± 2 | 1151 ± 10 | 1130 ± 10 | 1100 ± 10 | 1088 ± 10
m1 = 0.0692 | 793.7 ± 2 | 789.3 ± 2 | 784.3 ± 2 | 779.5 ± 2 | 1152 ± 10 | 1131 ± 10 | 1101 ± 10 | 1089 ± 10
m1 = 0.1378 | 805.5 ± 2 | 801.2 ± 2 | 797 ± 2 | 792.6 ± 2 | 1154 ± 10 | 1134 ± 10 | 1116 ± 10 | 1104 ± 10
m1 = 0.2691 | 825.5 ± 2 | 821.5 ± 2 | 816.6 ± 2 | 812 ± 2 | 1158 ± 10 | 1140 ± 10 | 1122 ± 10 | 1110 ± 10
m1 = 0.4006 | 844.7 ± 2 | 840.6 ± 2 | 836.4 ± 2 | 832.3 ± 2 | 1170 ± 10 | 1149 ± 10 | 1134 ± 10 | 1116 ± 10
m1 = 0.6112 | 868.3 ± 2 | 864.6 ± 2 | 860.4 ± 2 | 856.3 ± 2 | 1176 ± 10 | 1158 ± 10 | 1140 ± 10 | 1125 ± 10
m1 = 0.8299 | 883.8 ± 2 | 879.9 ± 2 | 875.8 ± 2 | 866.2 ± 2 | 1179 ± 10 | 1161 ± 10 | 1146 ± 10 | 1131 ± 10
m1 = 1.008 | 892.6 ± 2 | 888.9 ± 2 | 884.8 ± 2 | 880.7 ± 2 | 1182 ± 10 | 1164 ± 10 | 1149 ± 10 | 1134 ± 10
m1 = 1.28 | 910.2 ± 2 | 906.5 ± 2 | 902.4 ± 2 | 898.3 ± 2 | 1188 ± 10 | 1170 ± 10 | 1158 ± 10 | 1146 ± 10

CCCCCCCC[N+](C)(CCCCCCCC)CCCCCCCC.O=S(=O)([N-]S(=O)(=O)C(F)(F)F)C(F)(F)F + CCOC(C)=O
Settings | mass density, 298.15 K [kg/m3] | mass density, 303.15 K [kg/m3] | mass density, 308.15 K [kg/m3] | mass density, 313.15 K [kg/m3] | speed of sound, 298.15 K [m/s] | speed of sound, 303.15 K [m/s] | speed of sound, 308.15 K [m/s] | speed of sound, 313.15 K [m/s]
m1 = 0.0193 | 897 ± 2 | 891.1 ± 2 | 885.3 ± 2 | 878.9 ± 2 | 1142 ± 10 | 1119 ± 10 | 1097 ± 10 | 1074 ± 10
m1 = 0.0434 | 900 ± 2 | 894.1 ± 2 | 888.3 ± 2 | 882 ± 2 | 1143 ± 10 | 1120 ± 10 | 1098 ± 10 | 1076 ± 10
m1 = 0.0692 | 903 ± 2 | 897.1 ± 2 | 891.3 ± 2 | 885 ± 2 | 1144 ± 10 | 1122 ± 10 | 1104 ± 10 | 1077 ± 10
m1 = 0.1377 | 910.7 ± 2 | 904.8 ± 2 | 899.1 ± 2 | 892.9 ± 2 | 1149 ± 10 | 1125 ± 10 | 1107 ± 10 | 1080 ± 10
m1 = 0.2691 | 923.8 ± 2 | 918 ± 2 | 912.4 ± 2 | 906.5 ± 2 | 1152 ± 10 | 1128 ± 10 | 1110 ± 10 | 1083 ± 10
m1 = 0.4006 | 935.1 ± 2 | 929.4 ± 2 | 924 ± 2 | 918.3 ± 2 | 1155 ± 10 | 1131 ± 10 | 1113 ± 10 | 1086 ± 10
m1 = 0.6119 | 950.4 ± 2 | 944.9 ± 2 | 939.7 ± 2 | 934.5 ± 2 | 1161 ± 10 | 1140 ± 10 | 1116 ± 10 | 1092 ± 10
m1 = 0.8299 | 963.4 ± 2 | 958.3 ± 2 | 953.3 ± 2 | 948.4 ± 2 | 1164 ± 10 | 1146 ± 10 | 1122 ± 10 | 1098 ± 10
m1 = 1.006 | 972.5 ± 2 | 967.5 ± 2 | 962.6 ± 2 | 957.9 ± 2 | 1170 ± 10 | 1158 ± 10 | 1128 ± 10 | 1107 ± 10
m1 = 1.28 | 984.5 ± 2 | 979.7 ± 2 | 974.8 ± 2 | 970.2 ± 2 | 1179 ± 10 | 1161 ± 10 | 1137 ± 10 | 1113 ± 10
m1 = 2.132 | 1011.1 ± 2 | 1006.9 ± 2 | 1001.9 ± 2 | 997 ± 2 | 1200 ± 10 | 1170 ± 10 | 1152 ± 10 | 1131 ± 10
m1 = 2.999 | 1029.3 ± 2 | 1025.5 ± 2 | 1019.5 ± 2 | 1013.8 ± 2 | 1206 ± 10 | 1182 ± 10 | 1161 ± 10 | 1140 ± 10
